In EPA's ToxRefDB 2:

Tests used:
rabbit = details: Prenatal developmental toxicity study, new zealand white, Oral, Gavage/Intubation, dose end: 19 GD
rat [1] = details: Multigenerational reproductive toxicity study, other, Oral, Feed, dose end: 2 generation
rat [2] = details: Prenatal developmental toxicity study, fischer, Oral, Gavage/Intubation, dose end: 15 GD
rat [3] = details: Multigenerational reproductive toxicity study, sprague dawley, Oral, Gavage/Intubation, dose end: 2 generation
rat [4] = details: Peri- and post-natal toxicity study (Segment III), sprague dawley, Oral, Gavage/Intubation, dose end: 43 PND
[5] = group: developmental, developmental / developmental malformation / bone / misshapen + developmental / developmental malformation / gallbladder / hypoplasia + …
[6] = group: maternal, systemic / in life observation / body weight / body weight + systemic / in life observation / body weight / body weight gain + systemic / in…
[7] = group: offspring, developmental / offspring survival late / [other] / [other] + systemic / in life observation / body weight / offspring (pup) weight
[8] = group: parental, systemic / in life observation / body weight / body weight + systemic / in life observation / food consumption / food consumption
[9] = group: reproductive, reproductive / offspring survival early / litter size / litter size + reproductive / offspring survival early / live fetuses / live fetuses
[10] = group: developmental, systemic / in life observation / body weight / fetal weight
[11] = group: maternal, systemic / in life observation / body weight / body weight gain + systemic / in life observation / food consumption / food consumption
[12] = group: offspring, systemic / organ weight / thymus / absolute
[13] = group: offspring, systemic / organ weight / thymus / absolute + systemic / organ weight / thymus / relative to body weight
[14] = group: parental, systemic / organ weight / liver / absolute + systemic / organ weight / liver / relative to body weight
[15] = group: parental, systemic / organ weight / liver / absolute + systemic / organ weight / liver / relative to body weight + systemic / in life observation / …
[16] = group: developmental, developmental / developmental landmark / vaginal opening / vaginal opening
[17] = group: maternal, reproductive / reproductive performance / estrous cycle / [other]
[18] = group: maternal, reproductive / reproductive performance / estrous cycle / [other] + reproductive / reproductive performance / estrous cycle / abnormal + …
[19] = group: parental, systemic / organ weight / liver / absolute + systemic / organ weight / ovary / absolute + systemic / organ weight / pituitary gland / …

CC1=C(C(=O)Nc2ccccc2)S(=O)(=O)CCO1 [Oxycarboxin]
LEL (rabbit; [5]): 750 mg/kg/day
LOAEL (rabbit; [5]): 750 mg/kg/day
NEL (rabbit; [5]): 150 mg/kg/day
NOAEL (rabbit; [5]): 150 mg/kg/day
LEL (rabbit; [6]): 750 mg/kg/day
LOAEL (rabbit; [6]): 750 mg/kg/day
NEL (rabbit; [6]): 150 mg/kg/day
NOAEL (rabbit; [6]): 150 mg/kg/day

Cl/C=C\C[N+]12CN3CN(CN(C3)C1)C2.[Cl-] [Chloroallyl methenamine chloride]
LEL (rat [1]; [7]): 14.8 mg/kg/day
LOAEL (rat [1]; [7]): > 14.8 mg/kg/day
NEL (rat [1]; [7]): 5 mg/kg/day
NOAEL (rat [1]; [7]): ≥ 14.8 mg/kg/day
LEL (rat [1]; [8]): 4.57 mg/kg/day
LOAEL (rat [1]; [8]): > 13.4 mg/kg/day
NEL (rat [1]; [8]): 1.53 mg/kg/day
NOAEL (rat [1]; [8]): ≥ 13.4 mg/kg/day
NEL (rat [1]; group: reproductive, reproductive / offspring survival early / litter size / litter size): 5 mg/kg/day
LEL (rat [1]; [9]): 14.8 mg/kg/day
LOAEL (rat [1]; [9]): > 14.8 mg/kg/day
NOAEL (rat [1]; [9]): ≥ 14.8 mg/kg/day
LEL (rat [2]; [10]): 75 mg/kg/day
LOAEL (rat [2]; [10]): > 75 mg/kg/day
NEL (rat [2]; [10]): 25 mg/kg/day
NOAEL (rat [2]; [10]): ≥ 75 mg/kg/day
LOAEL (rat [2]; [6]): 75 mg/kg/day
NOAEL (rat [2]; [6]): 25 mg/kg/day
LEL (rat [2]; [11]): 25 mg/kg/day
NEL (rat [2]; [11]): < 25 mg/kg/day

CCCCc1ccccc1 [Butylbenzene]
NEL (rat [3]; [12]): 100 mg/kg/day
NOAEL (rat [3]; [12]): 100 mg/kg/day
LEL (rat [3]; [13]): 300 mg/kg/day
LOAEL (rat [3]; [13]): 300 mg/kg/day
LEL (rat [3]; [14]): 30 mg/kg/day
NEL (rat [3]; [14]): < 30 mg/kg/day
LOAEL (rat [3]; [15]): 100 mg/kg/day
NOAEL (rat [3]; [15]): 30 mg/kg/day

COc1ccc(C(c2ccc(OC)cc2)C(Cl)(Cl)Cl)cc1 [Methoxychlor]
LEL (rat [4]; [16]): 12.5 mg/kg/day
LOAEL (rat [4]; [16]): > 50 mg/kg/day
NEL (rat [4]; [16]): < 12.5 mg/kg/day
NOAEL (rat [4]; [16]): ≥ 50 mg/kg/day
LEL (rat [4]; [17]): 12.5 mg/kg/day
NEL (rat [4]; [17]): < 12.5 mg/kg/day
LOAEL (rat [4]; [18]): > 50 mg/kg/day
NOAEL (rat [4]; [18]): ≥ 50 mg/kg/day
LEL (rat [4]; [19]): 50 mg/kg/day
LOAEL (rat [4]; [19]): > 50 mg/kg/day
NEL (rat [4]; [19]): 25 mg/kg/day
NOAEL (rat [4]; [19]): ≥ 50 mg/kg/day
